According to patent US7759375B2, “Epothilones C, D, E, and F, preparation and compositions” (priority 1996, dated 2010):
≈ marks a conversion by molar mass, not a printed value. Like-named read-outs stand apart in the source and are kept apart here.

Columns and labels:
K-562 (leukaemia) = test: Growth inhibition in cell culture, K-562; assay type: cell-based, human
Procedure: (§1) The epothilones according to the invention were tested with cell cultures (Table 2) and for promotion of polymerization (Table 3).

[1] = system: KB-VI (carcinoma of the cervix multires); test: Growth inhibition in cell culture, KB-VI; assay type: cell-based, human
Procedure: as §1

[2] = system: KB-3.1 (carcinoma of the cervix); test: Growth inhibition in cell culture, KB-3.1; assay type: cell-based, human
Procedure: as §1

[3] = system: A-549 (carcinoma of the lung); test: Growth inhibition in cell culture, A-549; assay type: cell-based, human
Procedure: as §1

Mouse fibroblasts L 929 = test: Growth inhibition in cell culture, mouse fibroblasts L929; assay type: cell-based
Procedure: as §1

[4] = molecular target: T1, purified tubulin from pigs' brain (Sus scrofa, UniProt P02554); assay type: biochemical, pig; details: 0.9 mg of tubulin/ml, 1 μM sample concentration; for Time up to the half-maximal polymerization, Agent [%] (relative activity in % of the control): control = 100, lowest values indicate the best activity; for Time up to the half-maximal polymerization of the control, Agent [s]: average of experiments w-z, control 190 s; for Time up to the half-maximal polymerization of the control, measurement w: independent experiment w; for Time up to the half-maximal polymerization of the control, measurement x: independent experiment x; for Time up to the half-maximal polymerization of the control, measurement y: independent experiment y; for Time up to the half-maximal polymerization of the control, measurement z: independent experiment z
T1 construct: purified tubulin from pigs' brain; from tissue; host or cells: pig brain
T1 sequence (P02554 whole entry): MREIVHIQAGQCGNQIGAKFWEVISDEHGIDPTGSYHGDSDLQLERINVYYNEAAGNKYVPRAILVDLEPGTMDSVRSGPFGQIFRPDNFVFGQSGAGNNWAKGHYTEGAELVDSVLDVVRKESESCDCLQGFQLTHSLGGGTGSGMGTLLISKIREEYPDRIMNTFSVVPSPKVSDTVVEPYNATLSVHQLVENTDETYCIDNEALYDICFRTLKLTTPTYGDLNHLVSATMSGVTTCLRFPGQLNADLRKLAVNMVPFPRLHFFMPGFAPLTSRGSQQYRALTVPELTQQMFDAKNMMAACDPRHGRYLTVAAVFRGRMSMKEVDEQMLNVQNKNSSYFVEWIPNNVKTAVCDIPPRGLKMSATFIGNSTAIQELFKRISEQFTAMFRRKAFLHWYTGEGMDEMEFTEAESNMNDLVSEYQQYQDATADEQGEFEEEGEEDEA
T1 sequence (P02550 whole entry partner): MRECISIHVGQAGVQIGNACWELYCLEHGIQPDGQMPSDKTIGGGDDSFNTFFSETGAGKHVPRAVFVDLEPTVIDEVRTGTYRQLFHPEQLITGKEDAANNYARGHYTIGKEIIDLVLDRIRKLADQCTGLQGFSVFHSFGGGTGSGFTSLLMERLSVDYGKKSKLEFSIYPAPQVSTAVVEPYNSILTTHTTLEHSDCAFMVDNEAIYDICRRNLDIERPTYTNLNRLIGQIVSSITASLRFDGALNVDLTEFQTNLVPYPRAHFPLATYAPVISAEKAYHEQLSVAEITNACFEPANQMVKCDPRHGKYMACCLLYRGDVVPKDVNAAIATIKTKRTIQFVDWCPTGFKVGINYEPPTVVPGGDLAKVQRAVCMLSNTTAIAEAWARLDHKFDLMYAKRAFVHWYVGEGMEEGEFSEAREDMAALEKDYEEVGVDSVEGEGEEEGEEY
Procedure: as §1
The polymerization test is an in vitro test using purified tubulin from pigs' brain. Evaluation is carried out photometrically.

U-937 (lymphoma) = test: Growth inhibition in cell culture, U-937; assay type: cell-based, human
Procedure: as §1

HL-60 (leukaemia) = test: Growth inhibition in cell culture, HL-60; assay type: cell-based, human
Procedure: as §1

[5] = system: A-498 (carcinoma of the kidney); test: Growth inhibition in cell culture, A-498; assay type: cell-based, human
Procedure: as §1

[6] = KB-VI (carcinoma of the cervix multires)
[7] = KB-3.1 (carcinoma of the cervix)
[8] = A-498 (carcinoma of the kidney)

Q: What does the source list for `C/C(=C\c1csc(C)n1)[C@@H]1C[C@@H]2O[C@@H]2CCC[C@H](C)[C@H](O)[C@@H](C)C(=O)C(C)(C)[C@@H](O)CC(=O)O1` [Epothilone A, epothilone A, reference compound]?
A: IC-50 (K-562 (leukaemia); K-562 (leukaemia)): 0.3 ng/mL; IC-50 [1, 6]: 0.3 ng/mL; IC50 ([2]; HeLa KB-3.1 (human), concentration which reduces the growth by 50%): 1 ng/mL (≈ 2.03 nM); IC-50 [2, 7]: 1 ng/mL; IC-50 ([3]; A-549 (carcinoma of the lung)): 0.7 ng/mL; IC-50 (Mouse fibroblasts L 929; Mouse fibroblasts L 929): 4 ng/mL; IC50 (Mouse fibroblasts L 929; Mouse fibroblasts, L929, concentration which reduces the growth by 50%): 4 ng/mL (≈ 8.1 nM); Time up to the half-maximal polymerization, Agent [%] (relative activity in % of the control) [4]: 39%; Time up to the half-maximal polymerization of the control, Agent [s] [4]: 74 s; Time up to the half-maximal polymerization of the control, measurement w [4]: 95 s; Time up to the half-maximal polymerization of the control, measurement x [4]: 60 s; Time up to the half-maximal polymerization of the control, measurement y [4]: 70 s; Time up to the half-maximal polymerization of the control, measurement z [4]: 70 s; IC-50 (U-937 (lymphoma); U-937 (lymphoma)): 0.2 ng/mL; IC-50 (HL-60 (leukaemia); HL-60 (leukaemia)): 0.2 ng/mL

Q: For `C/C(=C\c1csc(C)n1)[C@@H]1C[C@@H]2O[C@]2(C)CCC[C@H](C)[C@H](O)[C@@H](C)C(=O)C(C)(C)[C@@H](O)CC(=O)O1` [Epothilone B, epothilone B, reference compound], which “IC-50” value (K-562 (leukaemia); K-562 (leukaemia)) is on record?
A: 0.3 ng/mL

Q: What about the “IC-50” value [1, 6] of the same molecule?
A: 0.3 ng/mL

Q: What about the “IC-50” value [2, 7] of the same molecule?
A: 0.6 ng/mL

Q: What about the “IC-50” value ([3]; A-549 (carcinoma of the lung)) of the same molecule?
A: 0.1 ng/mL

Q: And the “IC-50” value (Mouse fibroblasts L 929; Mouse fibroblasts L 929)?
A: 1 ng/mL

Q: And the “Time up to the half-maximal polymerization, Agent [%] (relative activity in % of the control)” value [4]?
A: 14%

Q: What about the “Time up to the half-maximal polymerization of the control, Agent [s]” value (shortened to “Time up … [s]”) [4] of the same molecule?
A: 26 s

Q: What about the “Time up to the half-maximal polymerization of the control, measurement x” value (“Time up … measurement x” for short) [4] of the same molecule?
A: 23 s

Q: And the “Time up to the half-maximal polymerization of the control, measurement y” value (from here on “Time up … measurement y”) [4]?
A: 25 s

Q: What about the “Time up to the half-maximal polymerization of the control, measurement z” value [4] of the same molecule?
A: 30 s

Q: And the “IC-50” value (U-937 (lymphoma); U-937 (lymphoma))?
A: 0.2 ng/mL

Q: What about the “IC-50” value [5, 8] of the same molecule?
A: 1.5 ng/mL

Q: And the “IC-50” value (HL-60 (leukaemia); HL-60 (leukaemia))?
A: 0.2 ng/mL

Q: For `C/C(=C\c1csc(C)n1)[C@@H]1C/C=C\CCC[C@H](C)[C@H](O)[C@@H](C)C(=O)C(C)(C)[C@@H](O)CC(=O)O1` [Epothilone C], which “IC-50” value (K-562 (leukaemia); K-562 (leukaemia)) is on record?
A: 20 ng/mL

Q: And the “IC-50” value [1, 6]?
A: 15 ng/mL

Q: And the “IC-50” value [2, 7]?
A: 20 ng/mL

Q: What about the “IC-50” value ([3]; A-549 (carcinoma of the lung)) of the same molecule?
A: 30 ng/mL

Q: And the “IC-50” value (Mouse fibroblasts L 929; Mouse fibroblasts L 929)?
A: 100 ng/mL

Q: What about the “Time up to the half-maximal polymerization, Agent [%] (relative activity in % of the control)” value [4] of the same molecule?
A: 49%

Q: What about the “Time up … [s]” value [4] of the same molecule?
A: 94 s

Q: What about the “Time up to the half-maximal polymerization of the control, measurement w” value [4] of the same molecule?
A: 125 s

Q: What about the “Time up … measurement x” value [4] of the same molecule?
A: 76 s

Q: What about the “Time up … measurement y” value [4] of the same molecule?
A: 95 s

Q: And the “Time up to the half-maximal polymerization of the control, measurement z” value [4]?
A: 80 s

Q: And the “IC-50” value (U-937 (lymphoma); U-937 (lymphoma))?
A: 10 ng/mL

Q: And the “IC-50” value [5, 8]?
A: 150 ng/mL

Q: And the “IC-50” value (HL-60 (leukaemia); HL-60 (leukaemia))?
A: 10 ng/mL

Q: For `C/C1=C/C[C@@H](/C(C)=C/c2csc(C)n2)OC(=O)C[C@H](O)C(C)(C)C(=O)[C@H](C)[C@@H](O)[C@@H](C)CCC1` [Epothilone D], which “IC-50” value (K-562 (leukaemia); K-562 (leukaemia)) is on record?
A: 10 ng/mL

Q: And the “IC-50” value [1, 6]?
A: 3 ng/mL

Q: And the “IC-50” value [2, 7]?
A: 12 ng/mL

Q: What about the “IC-50” value ([3]; A-549 (carcinoma of the lung)) of the same molecule?
A: 10 ng/mL

Q: What about the “IC-50” value (Mouse fibroblasts L 929; Mouse fibroblasts L 929) of the same molecule?
A: 20 ng/mL

Q: What about the “Time up to the half-maximal polymerization, Agent [%] (relative activity in % of the control)” value [4] of the same molecule?
A: 56%

Q: What about the “Time up … [s]” value [4] of the same molecule?
A: 106 s

Q: And the “Time up to the half-maximal polymerization of the control, measurement w” value [4]?
A: 125 s

Q: And the “Time up … measurement x” value [4]?
A: 73 s

Q: And the “Time up … measurement y” value [4]?
A: 120 s

Q: And the “IC-50” value (U-937 (lymphoma); U-937 (lymphoma))?
A: 3 ng/mL

Q: What about the “IC-50” value [5, 8] of the same molecule?
A: 20 ng/mL

Q: What about the “IC-50” value (HL-60 (leukaemia); HL-60 (leukaemia)) of the same molecule?
A: 3 ng/mL

Q: `C/C(=C\c1csc(CO)n1)[C@@H]1C[C@@H]2O[C@@H]2CCC[C@H](C)[C@H](O)[C@@H](C)C(=O)C(C)(C)[C@@H](O)CC(=O)O1` [Epothilone E] was tested. Which “IC-50” value (K-562 (leukaemia)) did it give?
A: 2 ng/mL

Q: And the “IC-50” value [1]?
A: 5 ng/mL

Q: And the “IC50” value [2]?
A: 5 ng/mL (≈ 9.81 nM)

Q: And the “IC-50” value [2]?
A: 5 ng/mL

Q: What about the “IC-50” value [3] of the same molecule?
A: 3 ng/mL

Q: And the “IC50” value (Mouse fibroblasts L 929)?
A: 20 ng/mL (≈ 39.2 nM)

Q: And the “IC-50” value (Mouse fibroblasts L 929)?
A: 20 ng/mL

Q: And the “IC-50” value (U-937 (lymphoma))?
A: 1 ng/mL

Q: And the “IC-50” value [5]?
A: 20 ng/mL

Q: What about the “IC-50” value (HL-60 (leukaemia)) of the same molecule?
A: 1 ng/mL

Q: With `C/C(=C\c1csc(CO)n1)[C@@H]1C[C@@H]2O[C@]2(C)CCC[C@H](C)[C@H](O)[C@@H](C)C(=O)C(C)(C)[C@@H](O)CC(=O)O1` [Epothilone F] as the molecule, how does the “IC-50” value (K-562 (leukaemia)) read?
A: 0.5 ng/mL

Q: And the “IC-50” value [1]?
A: 0.6 ng/mL

Q: What about the “IC-50” value [2] of the same molecule?
A: 0.5 ng/mL

Q: And the “IC-50” value [3]?
A: 0.1 ng/mL

Q: And the “IC-50” value (Mouse fibroblasts L 929)?
A: 1.5 ng/mL

Q: What about the “IC-50” value (U-937 (lymphoma)) of the same molecule?
A: 0.2 ng/mL

Q: And the “IC-50” value [5]?
A: 3 ng/mL

Q: And the “IC-50” value (HL-60 (leukaemia))?
A: 0.3 ng/mL
